Results on three compounds are retold here after US7396849B2, “4-(Condensed cyclicmethyl)-imidazole-2-thiones acting as α2 adrenergic agonists” (Allergan, Inc., priority 2004, dated 2008).

In data set [1] the test system is Chung Model of Neuropathic Pain. The data set can be described thus: Chung model of neuropathic pain (tactile allodynia, von Frey hairs). Format: in vivo, rats. Conditions: 30 min following drug administration. From the text:
A model in accordance with Kim and Chung 1992, Pain […], pp 355-363 (Chung model), for chronic pain (in particular peripheral neuropathy) involves the surgical ligation of the L5 (and optionally the L6) spinal nerves on one side in experimental animals. Rats recovering from the surgery gain weight and display a level of general activity similar to that of normal rats. However, these rats develop abnormalities of the foot, wherein the hindpaw is moderately everted and the toes are held together. More importantly, the hindpaw on the side affected by the surgery appears to become sensitive to pain from low-threshold mechanical stimuli, such as that producing a faint sensation of touch in a human, within about 1 week following surgery. This sensitivity to normally non-painful touch is called “tactile allodynia” and lasts for at least two months. The response includes lifting the affected hindpaw to escape from the stimulus, licking the paw and holding it in the air for many seconds. None of these responses is normally seen in the control group.
Rats are anesthetized before surgery. The surgical site is shaved and prepared either with betadine or Novacaine. Incision is made from the thoracic vertebra XIII down toward the sacrum. Muscle tissue is separated from the spinal vertebra (left side) at the L4-S2 levels. The L6 vertebra is located and the transverse process is carefully removed with a small rongeur to expose the L4-L6 spinal nerves. The L5 and L6 spinal nerves are isolated and tightly ligated with 6-0 silk thread. The same procedure is done on the right side as a control, except no ligation of the spinal nerves is performed.
A complete hemostasis is confirmed, then the wounds are sutured. A small amount of antibiotic ointment is applied to the incised area, and the rat is transferred to the recovery plastic cage under a regulated heat-temperature lamp. On the day of the experiment, at least seven days after the surgery, typically six rats per test group are administered the test drugs by intraperitoneal (i.p.) injection or oral gavage. […], the compounds are formulated in d H2O and given in a volume of 1 ml/kg body weight using an 18-gauge, 3 inch gavage needle that is slowly inserted through the esophagus into the stomach.
Tactile allodynia is measured prior to and 30 minutes after drug administration using von Frey hairs that are a series of fine hairs with incremental differences in stiffness. Rats are placed in a plastic cage with a wire mesh bottom and allowed to acclimate for approximately 30 minutes. The von Frey hairs are applied perpendicularly through the mesh to the mid-plantar region of the rats' hindpaw with sufficient force to cause slight buckling and held for 6-8 seconds. The applied force has been calculated to range from 0.41 to 15.1 grams. If the paw is sharply withdrawn, it is considered a positive response. A normal animal will not respond to stimuli in this range, but a surgically ligated paw will be withdrawn in response to a 1-2 gram hair. The 50% paw withdrawal threshold is determined using the method of Dixon, W. J., Ann. Rev. Pharmacol. Toxicol. 20:441-462 (1980) hereby incorporated by reference. The post-drug threshold is compared to the pre-drug threshold and the percent reversal of tactile sensitivity is calculated based on a normal threshold of 15.1 grams.
All measurements 30 min following drug administration. p value<0.001 compared to pretreatment values.

Data set [2] relates to Sprague-Dawley rats. Briefly: Sedative activity (exploratory behavior after i.p. injection). Format: in vivo. The note with it: intraperitoneally, up to a dose of 1 mg/kg. The procedure: To test sedation, six male Sprague-Dawley rats are given up to 3 mg/kg of the test compound in a saline or DMSO vehicle by intraperitoneal injection (i.p.). Sedation is graded 30 minutes following administration of the drug by monitoring locomotor skills as follows.
The Sprague-Dawley rats are weighed and 1 ml/kg body weight of an appropriate concentration (ie. 3 mg/ml for a final dose of 3 mg/kg) drug solution is injected intraperitoneally. Typically the test compound is formulated in approximately 10 to 50% DMSO. The results are compared to controls that are injected with 1 ml/kg saline or 10 to 50% DMSO. Rat activity is then determined 30 minutes after injection of the drug solution. Rats are placed in a dark covered chamber and a digicom analyzer (Omnitech Electronic) quantitates their exploratory behavior for a five-minute period. The machine records each time the rat interrupts an array of 32 photoelectric beams in the X and Y orientation.
Effects on Cardiovascular System

In data set [3] the target is T1, alpha2B adrenergic receptors (Homo sapiens, UniProt P18089).
T1 construct: expressed in transfected cells; host or cells: NIH-3T3 cells
T1 sequence (P18089 1-450): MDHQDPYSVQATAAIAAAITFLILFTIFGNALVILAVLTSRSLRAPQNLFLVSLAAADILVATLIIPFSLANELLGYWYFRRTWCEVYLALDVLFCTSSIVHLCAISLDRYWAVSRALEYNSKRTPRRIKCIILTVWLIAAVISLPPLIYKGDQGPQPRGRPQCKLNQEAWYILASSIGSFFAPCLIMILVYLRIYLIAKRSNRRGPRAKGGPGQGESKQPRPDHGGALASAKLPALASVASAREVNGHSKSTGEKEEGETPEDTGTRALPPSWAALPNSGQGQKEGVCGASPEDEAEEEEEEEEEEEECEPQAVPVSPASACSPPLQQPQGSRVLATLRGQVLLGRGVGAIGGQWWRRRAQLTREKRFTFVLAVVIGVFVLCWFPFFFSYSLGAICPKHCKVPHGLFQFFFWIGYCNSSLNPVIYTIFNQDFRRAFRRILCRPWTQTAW
The data set can be described thus: RSAT assay (Receptor Selection and Amplification Technology), alpha2B. Format: cell-based. The note with it: NIH-3T3 cells, ratio of maximal effect to that of standard full agonist brimonidine, NA = not active below 10 micromolar. The source says: (§1) The imidazole-2-thione compounds of the invention are agonists of alpha2 adrenergic receptors. Many compounds of the invention are specific or selective agonists of alpha2B and/or to a lesser extent alpha2C adrenergic receptors, in preference over alpha2A adrenergic receptors. […] 76, pp. 308-311 (incorporated herein by reference) and is also described below. Another reference pertinent to this assay is Conklin et al. (1993) Nature 363:274-6, Receptor Selection and Amplification Technology (RSAT) assay, also incorporated herein by reference.
(§2) The RSAT assay measures a receptor-mediated loss of contact inhibition that results in selective proliferation of receptor-containing cells in a mixed population of confluent cells. The increase in cell number is assessed with an appropriate transfected marker gene such as β-galactosidase, the activity of which can be easily measured in a 96-well format. Receptors that activate the G protein, Gq, elicit this response. Alpha2 receptors, which normally couple to Gi, activate the RSAT response when coexpressed with a hybrid Gq protein that has a Gi receptor recognition domain, called Gq/i5.
(§3) NIH-3T3 cells are plated at a density of 2×10^6 cells in 15 cm dishes and maintained in Dulbecco's modified Eagle's medium supplemented with 10% calf serum. One day later, cells are cotransfected by calcium phosphate precipitation with mammalian expression plasmids encoding p-SV-β-galactosidase (5-10 μg), receptor (1-2 μg) and G protein (1-2 μg). 40 μg salmon sperm DNA may also be included in the transfection mixture. Fresh media is added on the following day and 1-2 days later, cells are harvested and frozen in 50 assay aliquots. Cells are thawed and 100 μl added to 100 μl aliquots of various concentrations of drugs in triplicate in 96-well dishes. Incubations continue 72-96 hr at 37° C. After washing with phosphate-buffered saline, β-galactosidase enzyme activity is determined by adding 200 μl of the chromogenic substrate (consisting of 3.5 mM o-nitrophenyl-β-D-galactopyranoside and 0.5% nonidet P-40 in phosphate buffered saline), incubating overnight at 30° C. and measuring optical density at 420 nm. The absorbance is a measure of enzyme activity, which depends on cell number and reflects a receptor-mediated cell proliferation. The efficacy or intrinsic activity is calculated as a ratio of the maximal effect of the drug to the maximal effect of a standard full agonist for each receptor subtype. Brimonidine, also called UK14304, the chemical structure of which is shown below, is used as the standard agonist for the alpha2A, alpha2B and alpha2C receptors.
(§4) The results of the RSAT assay with several exemplary compounds of the invention are disclosed in Table 1 above together with the chemical formulas of these examplary compounds. NA stands for “not active” at cohcentrations less than 10 micromolar.

Data set [4] deals with T2, alpha2C adrenergic receptors (Homo sapiens, UniProt P18825).
T2 construct: expressed in transfected cells; host or cells: NIH-3T3 cells
T2 sequence (P18825 1-462): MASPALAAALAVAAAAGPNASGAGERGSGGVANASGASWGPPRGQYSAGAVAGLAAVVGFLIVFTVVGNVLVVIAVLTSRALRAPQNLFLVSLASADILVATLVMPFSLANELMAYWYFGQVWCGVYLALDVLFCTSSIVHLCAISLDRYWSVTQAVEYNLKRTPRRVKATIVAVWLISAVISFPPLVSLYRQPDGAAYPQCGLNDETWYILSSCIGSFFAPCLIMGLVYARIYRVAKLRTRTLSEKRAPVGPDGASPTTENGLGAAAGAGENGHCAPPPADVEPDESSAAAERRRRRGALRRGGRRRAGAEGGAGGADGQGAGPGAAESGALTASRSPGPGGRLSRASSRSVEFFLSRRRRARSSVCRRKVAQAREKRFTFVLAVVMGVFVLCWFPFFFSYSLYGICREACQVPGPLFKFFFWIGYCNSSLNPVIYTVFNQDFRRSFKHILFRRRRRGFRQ
Briefly: RSAT assay (Receptor Selection and Amplification Technology), alpha2C. It is filed as cell-based. The note with it: NIH-3T3 cells, ratio of maximal effect to that of standard full agonist brimonidine, NA = not active below 10 micromolar.
Text: as §1, §2, §3, §4

For data set [5], the target named is T3, alpha2A adrenergic receptors (Homo sapiens, UniProt P08913).
T3 construct: expressed in transfected cells; host or cells: NIH-3T3 cells
T3 sequence (P08913 1-465): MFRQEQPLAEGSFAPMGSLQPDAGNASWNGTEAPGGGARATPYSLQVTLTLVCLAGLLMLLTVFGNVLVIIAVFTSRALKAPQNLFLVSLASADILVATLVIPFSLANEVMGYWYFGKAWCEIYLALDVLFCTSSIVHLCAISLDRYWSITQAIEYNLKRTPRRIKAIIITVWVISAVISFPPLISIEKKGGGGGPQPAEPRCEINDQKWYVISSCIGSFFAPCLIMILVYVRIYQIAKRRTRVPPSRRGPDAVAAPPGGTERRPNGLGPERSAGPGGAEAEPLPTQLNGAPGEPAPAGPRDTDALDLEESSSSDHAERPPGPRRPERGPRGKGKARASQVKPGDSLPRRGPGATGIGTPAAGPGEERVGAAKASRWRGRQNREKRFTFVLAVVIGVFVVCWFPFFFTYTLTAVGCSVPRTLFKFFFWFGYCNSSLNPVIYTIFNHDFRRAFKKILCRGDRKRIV
Briefly: RSAT assay (Receptor Selection and Amplification Technology), alpha2A. Format: cell-based. Conditions: NIH-3T3 cells, ratio of maximal effect to that of standard full agonist brimonidine, NA = not active below 10 micromolar.
Text: as §1, §2, §3, §4

On to `CC(c1c[nH]c(=S)[nH]1)c1cccc2ncccc12` (racemic) [Compound 7, 4-(1-quinolin-5-yl-ethyl)-1,3-dihydro-imidazole-2-thione], for which the “% Pain Reversal ± SEM” value in data set [1] (10 μg/kg i.p.) was found to be 2.9 ± 0.7%; in data set [1] (30 μg/kg i.p.), 65.8 ± 6.1%; in data set [1] (30 μg/kg p.o.) it was 77.0 ± 5.1%; in data set [1] (300 μg/kg i.p.), 77.7 ± 7.2%. Moreover, in data set [2], the sedative effect entry was “no sedative effect”. Also, the “Intrinsic Activity Alpha 2B” value in data set [3] was determined as 0.90.
For `CC(c1c[nH]c(=S)[nH]1)c1cccc2ncccc12` (single isomer, unassigned; (-)) [Compound 15, (−)-4-(1-quinolin-5-yl-ethyl)-1,3-dihydro-imidazole-2-thione], the “% Pain Reversal ± SEM” value was 58.0 ± 5.3% in data set [1] (3 μg/kg p.o.), 78.0 ± 4.6% in data set [1] (10 μg/kg p.o.), 82.0 ± 6.2% in data set [1] (30 μg/kg p.o.) and 81.0 ± 8.1% in data set [1] (100 μg/kg p.o.). Besides, the sedative effect result in data set [2] is listed as “no sedative effect”. Further, the “Intrinsic Activity Alpha 2B” value in data set [3] is on record as 0.89.
Take `Cc1c(C(C)c2c[nH]c(=S)[nH]2)ccc2cccnc12` (stereo not drawn) [Compound-18, 4-[1-(8-methyl-quinolin-7-yl)-ethyl]-1,3-dihydro-imidazole-2-thione]: the “Intrinsic Activity Alpha 2C” value in data set [4] came to 0.41. Moreover, the “Intrinsic Activity Alpha 2A” value in data set [5] is 0.80. Also, the “Intrinsic Activity Alpha 2B” value in data set [3] came out at 1.05.
